Assay results taken from patent US20200289450A1, “METHODS OF REDUCING OR PREVENTING OXIDATIVE MODIFICATION OF MEMBRANE POLYUNSATURATED FATTY ACIDS” (Amarin Pharmaceuticals Ireland Limited, priority 2013, published 2020).
Values belong to the compound of their own block, whether it stands above or below them.

Assays:
[1] = Glucose-induced membrane lipid peroxidation (LOOH), CHOD-iodide assay in MLVs (Example 4)
Method: Vitamin E (α-tocopherol) was also purchased from Sigma-Aldrich and prepared in ethanol at 1.0 mM (ϵ=3.06×10^4 M^−1 cm^−1 at 294 nm) just prior to experimental use. […] All test compounds were further diluted in ethanol or aqueous buffer as needed. Glucose was prepared in saline buffer (0.5 mM HEPES, 154 mM NaCl, pH 7.3) at 11.0 mM (200 mg/dL). CHOD-iodide color reagent (stock) was prepared, with slight modification, as described by from El-Saadani et al. (J. […] Prior to experimental use, the CHOD reagent was activated by adding 24 μM ethylenediaminetetraacetic acid (EDTA), 20 μM butylated hydroxytoluene (BHT), and 0.2% Triton X-100. Multilamellar vesicles (MLVs) were prepared as binary mixtures of DLPC (1.0 or 2.5 mg total phospholipid per sample) and cholesterol at a fixed cholesterol-to-phospholipid (C/P) mole ratio of 0.6:1. […] Aliquot volume was reduced with each successive time point to ensure that spectrophotometric readings were within the optimal adsorption range. […] Sample absorbances were then measured against a CHOD blank at 365 nm using a Beckman DU-640 spectrophotometer. The CHOD colorimetric assay is based on the oxidation of iodide (I^−) by lipid hydroperoxide (LOOH) to form triiodide (I3^−), the quantity of which is directly proportional to the amount of LOOH present in the lipid sample. […]

[2] = tested on: human low density lipoprotein and model liposomes; conditions: cited from earlier work
HMG-CoA reductase = target: T1, HMG-CoA reductase (Homo sapiens, UniProt P04035); conditions: metabolized by hepatic cytochrome P450; cited from earlier work
T1 sequence (P04035 1-888): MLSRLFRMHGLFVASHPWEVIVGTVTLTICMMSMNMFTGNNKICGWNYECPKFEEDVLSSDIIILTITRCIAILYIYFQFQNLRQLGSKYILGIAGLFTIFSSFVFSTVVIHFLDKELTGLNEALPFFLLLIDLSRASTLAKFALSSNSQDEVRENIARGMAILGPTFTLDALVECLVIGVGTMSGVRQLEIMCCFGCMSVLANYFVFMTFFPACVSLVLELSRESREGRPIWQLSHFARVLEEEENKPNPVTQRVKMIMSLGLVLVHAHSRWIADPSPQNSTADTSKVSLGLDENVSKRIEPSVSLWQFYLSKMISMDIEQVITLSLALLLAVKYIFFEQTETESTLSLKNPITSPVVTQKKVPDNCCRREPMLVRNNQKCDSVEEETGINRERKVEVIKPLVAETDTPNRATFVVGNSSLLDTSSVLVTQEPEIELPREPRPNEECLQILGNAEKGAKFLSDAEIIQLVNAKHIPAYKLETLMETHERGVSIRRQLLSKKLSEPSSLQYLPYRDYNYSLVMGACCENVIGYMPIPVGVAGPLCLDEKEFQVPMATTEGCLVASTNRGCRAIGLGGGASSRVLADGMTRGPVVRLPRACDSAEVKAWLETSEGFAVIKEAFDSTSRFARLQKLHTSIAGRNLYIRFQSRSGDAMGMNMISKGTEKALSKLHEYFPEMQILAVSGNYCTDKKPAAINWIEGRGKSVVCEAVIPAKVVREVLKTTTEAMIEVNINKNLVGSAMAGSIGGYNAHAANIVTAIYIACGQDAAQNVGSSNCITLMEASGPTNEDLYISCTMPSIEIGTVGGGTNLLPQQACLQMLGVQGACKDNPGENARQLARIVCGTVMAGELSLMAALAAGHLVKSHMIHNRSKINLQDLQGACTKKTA

[3] = cited from earlier work
[4] = Glucose- and peroxidation-induced cholesterol domain formation, small angle x-ray diffraction (Example 4); format: physicochemical
Method: The membrane structural effects of glucose and the various compounds examined in this study were measured at 0, 72, and 96 hour intervals. Membrane lipid vesicles were oriented for x-ray diffraction analysis as described by others (e.g., Herbette et al., Biophys. J., vol. 20(2), pages 245-272 (1977)). Briefly, a 100 μL aliquot (containing 250 μg MLV) was aspirated from each sample and transferred to a Lucite® sedimentation cell fitted with an aluminum foil substrate upon which a given sample could be collected by centrifugation. Samples were then loaded into a Sorvall AH-629 swinging bucket rotor (DuPont Corp., Wilmington, Del.) and centrifuged at 35,000 g, 5° C., for 90 min.
After centrifugal orientation, sample supernatants were aspirated and aluminum foil substrates, each supporting a single membrane pellet, were removed from the sedimentation cells. Sample pellets were dried for 5-10 min at ambient conditions, mounted onto curved glass supports, and placed in hermetically-sealed, brass or glass containers (for immediate analysis or temporary storage, respectively). All x-ray diffraction experiments were conducted at 20° C., 74% relative humidity. The latter was established by exposing membrane samples to saturated solutions of L-(+) […] (K2C4H4O6.½H2O). Samples were incubated at these conditions for at least 1 hour prior to experimental analysis.
Oriented membrane samples were aligned at grazing incidence with respect to a collimated, mono-chromatic CuKα x-ray beam (Kα1 and Kα2 unresolved; λ=1.54 Å) produced by a Rigaku Rotaflex RU-200, high-brilliance microfocus generator (Rigaku-MSC, The Woodlands, Tex.) as previously described (Mason et al, Biophys. J., vol. 55(4), pages 769-778 (1989)). […]
The d-space for any given membrane multibilayer is a measurement of the unit cell periodicity of the membrane lipid bilayer (e.g., the distance from the center of one lipid bilayer to the next including surface hydration), and is calculated from Bragg's Law, hλ=2dsinθ, where h is the diffraction order, λ is the wavelength of the x-ray radiation (1.54 Å), d is the membrane lipid bilayer unit cell periodicity, and θ is the Bragg angle equal to one-half the angle between the incident beam and scattered beam.
The presence of cholesterol domains in a given membrane sample results in the production of distinct Bragg (diffraction) peaks having singular periodicity values of 34 and 17 Å (typically referred to as first- and second-order cholesterol domain peaks). Under the specific temperature and relative humidity conditions established for these experiments, the second-order, 17 Å cholesterol domain peak was well-delineated from other, neighboring cholesterol and phospholipid diffraction peaks and was thus used to quantitate relative cholesterol domain peak intensity. […]

human sdLDL = experiment: Copper-initiated sdLDL oxidation, TBARS (Example 6)
Method: (§1) An experiment to study the antioxidant effect of EPA in small dense LDL (“sdLDL”) was performed. EPA was purchased from Sigma-Aldrich (Saint Louis, Mo.) and solubilized in ethanol to 1 mM under nitrogen atmosphere. Vitamin E (α-tocopherol) was purchased from Sigma-Aldrich and prepared in ethanol at 1.0 mM (ϵ=3.06×10^4 M^−1 cm^−1 at 294 nm) just prior to experimental use. All test compounds were further diluted in ethanol or aqueous buffer as needed.
(§2) Venous blood was collected from healthy volunteers into vacutainer tubes containing sodium EDTA. Plasma was separated by centrifugation at 3000 g for 25 min at 4° C. and adjusted to a density of 1.020 g/mL with KBr. […] Sample TBARS concentrations were determined spectrophotometrically by measuring sample absorbances against a standard curve derived from the hydrolysis of 1,1,3,3-tetramethoxypropane.
(§3) Data are presented as mean±S.D. for (N) separate samples or treatment groups. Differences between groups were analyzed using the two-tailed, Student's t-test (for comparisons between only two groups) or ANOVA followed by Dunnett or Student-Newman-Keuls multiple comparisons post-hoc analysis (for comparisons between three or more groups). […]

[5] = tested on: human LDL (unfractionated); experiment: Copper-initiated oxidation of unfractionated LDL, TBARS (Example 6); conditions: 1.0 μM to 10.0 μM
Method: as §1, §2, §3

SMILES: CC(C)c1c(C(=O)Nc2ccccc2O)c(-c2ccccc2)c(-c2ccc(F)cc2)n1CC[C@@H](O)C[C@@H](O)CC(=O)O [ATM, Atorvastatin ortho- (o-) hydroxy (active) metabolite]
antioxidant effects (LOOH formation) ([1]; each at 1.0 μM, glucose 200 mg/dL, 96 hours): separate and potent antioxidant effects
antioxidant properties [2]: potent antioxidant properties

SMILES: CC(C)c1c(C(=O)Nc2ccccc2)c(-c2ccccc2)c(-c2ccc(F)cc2)n1CC[C@@H](O)C[C@@H](O)CC(=O)O [atorvastatin]
share of circulating HMG-CoA reductase inhibitory activity accounted for by active metabolites (HMG-CoA reductase): approximately 70%
circulating levels of chlorotyrosine ([3]; 10 mg, 12 weeks): significantly reduce
circulating levels of dityrosine ([3]; 10 mg, 12 weeks): significantly reduce
circulating levels of nitrotyrosine ([3]; 10 mg, 12 weeks): significantly reduce
levels of oxidized lipids associated with all apoB100-containing lipid particles ([3]; 80 mg, 16 weeks, 2,341 patients): significant reduction

effect on membrane structure compared to control samples ([4]; 0 hours (start of experiment), glucose 200 mg/dL, 1:30 drug-to-phospholipid mole ratio): no appreciable effect
SMILES: Cc1c(C)c2c(c(C)c1O)CC[C@@](C)(CCC[C@H](C)CCC[C@H](C)CCCC(C)C)O2 [vitamin E, α-tocopherol]
effect on LOOH formation / lipid peroxidation (FIG. 3) ([1]; 72- and 96-hour time points, glucose, 1:30 drug-to-phospholipid mole ratio): no significant effect
cholesterol crystalline domain peaks (d-space 34 Å) ([4]; 72 hours oxidative conditions, glucose 200 mg/dL, 1:30): observed
cholesterol domain peaks ([4]; 96 hours oxidative conditions, glucose 200 mg/dL, 1:30): disproportionately greater
effect on cholesterol domain formation compared to control ([4]; any experimental time point (FIG. 5)): no significant effect
sdLDL oxidation (human sdLDL; 1.0 μM to 10.0 μM): did not inhibit sdLDL oxidation except at the highest concentration
reduction of TBARS levels compared to vehicle-treated controls (human sdLDL; sdLDL, 10.0 μM, 2 hr after 10 μM CuSO4): 26%
LDL oxidation [5]: did not inhibit LDL oxidation at any concentration
